Experiments:
[1] = test system: H7 regulatory region fused to GUS reporter gene in transgenic tobacco plants; experiment: In planta induction of GUS expression by ABA (histochemical GUS assay); format: in vivo, tobacco (cultivar PetH4); conditions: plants sprayed with 25-50 mL 6.0 AM ABA in distilled water with Tween-20, left 24 h; non-treated plants exhibited no GUS activity
Protocol: Tobacco leaves from regenerated plants grown in the greenhouse, and leaves and stems from M. truncatula plants grown from the cocultivated seedlings were incubated in the X-gluc substrate and the green pigments removed for visualization of the blue precipitate resulting from GUS enzyme activity (Jefferson et al., 1987, EMBO J. 6:3901-7).
(§1) In order to test induction of the expression of transgenes using abscisic acid (ABA), the H7 promoter was fused to the beta-glucuronidase (GUS) reporter gene and histochemical assays conducted for GUS gene activity, which results in a blue colour in plant tissue (Jefferson et al., 1987, EMBO J. 6:3901-7). The promoter region for the H7 (nucleotides 1-634 of FIG. 8; SEQ ID NO:4) was fused to the 5′ terminus of the GUS gene in the binary vector pB1101 (Jefferson et al., 1987, EMBO J. 6:3901-7, FIG. 1a), as described in Example 4.
The binary vector was transferred tobacco plants (cultivar PetH4) using Agrobacterium tumefaciens, as previously described in Example 4.
(§2) Transgenic plants were grown to maturity, but prior to flowering, in a greenhouse at 23-25° C., with supplemental light to provide an approximately 16 h photoperiod and with 20-20-20 fertilizer as required.
Plants were sprayed with 25-50 mL 6.0 AM ABA (trans isomers ABA, Sigma) in distilled water, with a drop of Tween™-20 until the leaves were dripping. […]

[2] = test system: H7 regulatory region fused to GUS reporter gene in transgenic tobacco callus; experiment: In vitro induction of GUS expression by ABA in callus (histochemical GUS assay); format: cell-based, tobacco (cultivar PetH4); conditions: callus on solid media pH 5.0 with 40 μM ABA, 2 days, 25° C.
Text: as §1, §2
Leaf discs were cut and surface sterilized using 3.5% bleach for 20 min, then washed with ethanol and rinsed three times with distilled water. The washed discs were plated in Petri dishes on original callusing media (MS medium supplemented with vitamins, 2.0 mg/L NAA, 0.2 mg/L BAP pH 5.8, 7 g/L agar solid media and 100 mg/L kanamycin). The Petri dishes were then placed in a dark incubator at 25° C. for 3 days. Following dark incubation, plated discs were then incubated at 25° C. with a 16 h photoperiod for 2-3 weeks.
Over this time, abundant callus (white or pale green) are formed, overgrowing the original tissue. […]

## CC1=CC(=O)CC(C)(C)[C@@]1(O)/C=C/C(C)=C\C(=O)O [ABA, abscisic acid]
[1]
  GUS activity in leaves: GUS activity was detected
[2]
  GUS expression in callus: GUS is expressed in the callus

Reference: patent US7329798B2, “Harvest-inducible regulatory elements and methods of using same” (University of Guelph, priority 2002, dated 2008)
